Columns and labels:
integrin α4β7 = molecular target: T1, integrin α4β7 (Homo sapiens, UniProt P13612+P26010); experiment: Integrin α4β7—MAdCAM-1 competition assay (ELISA); assay type: binding; settings: ratio a4b1 ELISA IC50 / a4b7 ELISA IC50
T1 sequence (P13612 34-977 limits assumed): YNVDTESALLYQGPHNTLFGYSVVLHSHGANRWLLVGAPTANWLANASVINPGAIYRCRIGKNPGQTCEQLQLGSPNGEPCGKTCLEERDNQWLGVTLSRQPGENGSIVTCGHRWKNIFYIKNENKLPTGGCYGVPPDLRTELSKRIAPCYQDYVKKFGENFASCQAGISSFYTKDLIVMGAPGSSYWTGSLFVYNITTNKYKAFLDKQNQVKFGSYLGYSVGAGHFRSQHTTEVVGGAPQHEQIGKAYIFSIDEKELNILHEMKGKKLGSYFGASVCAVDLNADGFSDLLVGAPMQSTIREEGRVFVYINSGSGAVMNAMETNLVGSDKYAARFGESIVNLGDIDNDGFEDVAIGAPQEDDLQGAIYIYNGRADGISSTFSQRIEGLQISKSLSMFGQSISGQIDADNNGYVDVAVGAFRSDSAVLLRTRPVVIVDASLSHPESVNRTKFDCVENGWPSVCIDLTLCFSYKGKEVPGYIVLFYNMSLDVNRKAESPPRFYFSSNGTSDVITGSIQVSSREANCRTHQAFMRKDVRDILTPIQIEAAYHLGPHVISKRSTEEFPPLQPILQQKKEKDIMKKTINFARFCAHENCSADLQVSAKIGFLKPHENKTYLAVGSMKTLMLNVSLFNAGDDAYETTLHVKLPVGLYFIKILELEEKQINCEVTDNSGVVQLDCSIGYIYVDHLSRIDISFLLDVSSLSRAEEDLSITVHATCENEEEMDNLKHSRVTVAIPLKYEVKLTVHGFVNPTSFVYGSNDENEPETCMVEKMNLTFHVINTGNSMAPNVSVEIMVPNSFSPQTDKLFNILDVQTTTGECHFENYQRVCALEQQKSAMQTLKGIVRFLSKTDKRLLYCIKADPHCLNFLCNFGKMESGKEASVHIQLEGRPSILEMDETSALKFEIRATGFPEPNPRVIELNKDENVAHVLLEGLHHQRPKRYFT
T1 sequence (P26010 20-723 limits assumed): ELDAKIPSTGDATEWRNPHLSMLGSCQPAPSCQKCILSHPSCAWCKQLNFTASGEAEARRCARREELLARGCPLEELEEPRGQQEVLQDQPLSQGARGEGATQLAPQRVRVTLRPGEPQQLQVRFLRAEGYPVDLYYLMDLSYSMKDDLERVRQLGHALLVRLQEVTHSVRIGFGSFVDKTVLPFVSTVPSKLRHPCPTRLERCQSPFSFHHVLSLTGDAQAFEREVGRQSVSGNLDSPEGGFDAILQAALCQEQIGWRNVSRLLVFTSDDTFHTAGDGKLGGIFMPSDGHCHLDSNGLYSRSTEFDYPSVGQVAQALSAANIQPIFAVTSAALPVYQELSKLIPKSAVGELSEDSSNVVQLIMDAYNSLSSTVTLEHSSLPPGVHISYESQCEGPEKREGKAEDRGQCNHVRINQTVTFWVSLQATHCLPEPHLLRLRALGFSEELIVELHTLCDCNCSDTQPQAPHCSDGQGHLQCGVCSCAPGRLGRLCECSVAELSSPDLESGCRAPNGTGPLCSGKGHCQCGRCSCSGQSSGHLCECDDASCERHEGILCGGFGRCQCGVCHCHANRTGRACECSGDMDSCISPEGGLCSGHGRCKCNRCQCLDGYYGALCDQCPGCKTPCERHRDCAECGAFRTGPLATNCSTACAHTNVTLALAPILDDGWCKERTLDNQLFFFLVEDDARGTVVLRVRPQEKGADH
In short: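 Competitive ELISA in which serially diluted compound was incubated with the receptor system for 2 h at room temperature to equilibrium. Wash buffer contained 1 mM MnCl2. Bound Fc-tagged partner was detected with anti-human IgG Fc-HRP and TMB.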

Aqueous solubility assay = assay type: physicochemical; settings: PBS pH 7.4, 4 h, room temperature; for Determined concentration Mean: mean of 3, maximal concentration evaluated 200, 500 or 1000 μM; for Determined concentration Rep 1: replicate 1; for Determined concentration Rep 2: replicate 2; for Determined concentration Rep 3: replicate 3
Protocol: Solutions were incubated for four hours at room temperature and stirred at 600 rpm and run in triplicate. Centrifugation was performed for 15 minutes at 6000 rpm and solution concentration was determined using HPLC-UV (photodiode array detector acquiring between 220 nm, and 300 nm wavelengths).

[1] = Plasma protein binding, equilibrium dialysis, rat plasma; settings: for fraction unbound at 5 h, 1 microM: 50% plasma
Protocol: (§3) An equilibrium dialysis (HTDialysis) method was used employing 50% plasma collected from CD-1 mice or Sprague-Dawley rats and incubated with K2EDTA. Test articles were assessed at 1 microM concentration in three replicates. Incubation time as 5 hours and plasma and buffer standards were assessed using LC/MS/MS. Percentage recovery was calculated as (Cbuffer+Cplasma)/[average]Cinitial, [average]Cinitial being measured in triplicate from the test samples prior to dialysis. Percentage of compound unbound was calculated as Cbuffer/Cplasma.

[2] = not given; remark: listed apart in the source
[3] = Plasma protein binding, equilibrium dialysis, mouse plasma; settings: for fraction unbound at 5 h, 1 microM: 50% plasma
Protocol: as §3

CYP2C9 = CYP2C9 (Homo sapiens, UniProt P11712); experiment: in vitro; settings: human, microsomes
Protocol: (§1) Cytochrome P450 Inhibition Assay
(§2) Analyses were performed using standard LC/MS/MS protocols.

CYP1A2 = molecular target: T2, CYP1A2 (Homo sapiens, UniProt P05177); experiment: in vitro; settings: human, microsomes
T2 sequence (P05177 1-516): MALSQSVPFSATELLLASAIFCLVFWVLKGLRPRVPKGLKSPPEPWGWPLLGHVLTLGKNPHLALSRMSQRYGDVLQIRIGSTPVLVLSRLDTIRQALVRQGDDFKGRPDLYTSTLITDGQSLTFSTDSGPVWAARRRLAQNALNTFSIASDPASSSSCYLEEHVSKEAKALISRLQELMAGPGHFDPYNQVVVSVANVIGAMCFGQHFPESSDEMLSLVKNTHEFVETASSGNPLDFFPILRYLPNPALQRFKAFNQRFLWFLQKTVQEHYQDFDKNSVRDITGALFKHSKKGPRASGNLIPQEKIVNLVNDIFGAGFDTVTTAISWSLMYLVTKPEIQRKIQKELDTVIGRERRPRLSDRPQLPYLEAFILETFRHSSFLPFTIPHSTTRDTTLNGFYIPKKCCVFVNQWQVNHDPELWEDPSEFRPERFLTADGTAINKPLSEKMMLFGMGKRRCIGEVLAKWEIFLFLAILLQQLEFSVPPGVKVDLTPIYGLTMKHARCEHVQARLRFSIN
Protocol: as §1, §2

CYP3A4 = CYP3A4 (Homo sapiens, UniProt P08684); experiment: in vitro; settings: human, microsomes
Protocol: as §1, §2

CYP2D6 = CYP2D6 (Homo sapiens, UniProt P10635); experiment: in vitro; settings: human, microsomes
Protocol: as §1, §2

Chain of CYP2C9 (P11712 whole entry): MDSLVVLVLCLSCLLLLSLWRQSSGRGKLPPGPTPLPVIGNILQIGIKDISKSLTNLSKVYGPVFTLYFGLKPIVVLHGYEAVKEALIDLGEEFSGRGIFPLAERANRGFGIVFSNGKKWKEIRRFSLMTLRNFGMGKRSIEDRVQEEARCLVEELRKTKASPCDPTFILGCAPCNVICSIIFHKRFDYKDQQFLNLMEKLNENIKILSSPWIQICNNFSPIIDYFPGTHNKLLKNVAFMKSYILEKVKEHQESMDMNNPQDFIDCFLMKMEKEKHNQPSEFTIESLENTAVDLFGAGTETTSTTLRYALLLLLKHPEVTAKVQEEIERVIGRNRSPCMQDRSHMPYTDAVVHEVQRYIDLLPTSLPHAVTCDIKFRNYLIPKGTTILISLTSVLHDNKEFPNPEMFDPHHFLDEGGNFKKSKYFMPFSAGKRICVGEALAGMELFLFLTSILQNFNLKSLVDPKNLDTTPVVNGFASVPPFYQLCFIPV
Chain of CYP2D6 (P10635 whole entry): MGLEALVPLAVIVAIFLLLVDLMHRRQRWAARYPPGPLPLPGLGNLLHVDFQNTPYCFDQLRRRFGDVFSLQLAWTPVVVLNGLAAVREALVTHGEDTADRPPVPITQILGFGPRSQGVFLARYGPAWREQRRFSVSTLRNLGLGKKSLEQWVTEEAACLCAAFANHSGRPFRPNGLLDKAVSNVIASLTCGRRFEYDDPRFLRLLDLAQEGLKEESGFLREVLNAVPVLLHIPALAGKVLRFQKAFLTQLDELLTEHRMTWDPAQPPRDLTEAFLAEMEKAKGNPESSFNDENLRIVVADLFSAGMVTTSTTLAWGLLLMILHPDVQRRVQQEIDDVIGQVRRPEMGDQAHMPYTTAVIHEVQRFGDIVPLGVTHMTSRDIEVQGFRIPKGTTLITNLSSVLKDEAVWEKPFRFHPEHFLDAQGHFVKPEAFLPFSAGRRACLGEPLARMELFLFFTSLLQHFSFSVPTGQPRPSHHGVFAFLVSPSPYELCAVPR
Chain of CYP3A4 (P08684 whole entry): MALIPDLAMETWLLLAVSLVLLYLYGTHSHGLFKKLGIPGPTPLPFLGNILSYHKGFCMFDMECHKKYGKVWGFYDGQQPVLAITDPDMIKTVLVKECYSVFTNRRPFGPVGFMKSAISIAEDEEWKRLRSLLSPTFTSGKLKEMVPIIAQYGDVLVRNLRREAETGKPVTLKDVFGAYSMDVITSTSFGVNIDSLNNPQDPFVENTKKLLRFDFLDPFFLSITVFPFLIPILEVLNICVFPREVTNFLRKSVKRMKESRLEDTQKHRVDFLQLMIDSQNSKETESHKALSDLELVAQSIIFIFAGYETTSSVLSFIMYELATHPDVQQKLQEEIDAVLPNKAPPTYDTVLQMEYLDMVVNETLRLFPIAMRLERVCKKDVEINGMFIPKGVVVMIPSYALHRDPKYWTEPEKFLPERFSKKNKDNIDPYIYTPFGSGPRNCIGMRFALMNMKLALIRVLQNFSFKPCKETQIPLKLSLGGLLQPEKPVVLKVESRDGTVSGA

| Structure (SMILES) | Determined concentration Mean (Aqueous solubility assay) [µM] | Determined concentration Rep 1 (Aqueous solubility assay) [µM] | Determined concentration Rep 2 (Aqueous solubility assay) [µM] | Determined concentration Rep 3 (Aqueous solubility assay) [µM] | further results |
| --- | --- | --- | --- | --- | --- |
| CC(C)C[C@@H]1NC(=O)C2(CCCC2)NC(=O)[C@@H]2CCCN2[C@H](C(=O)NC(C)(C)C)[C@H](C)NC(=O)[C@H]([C@@H](C)O)NC(=O)[C@H](CC(=O)O)NC1=O [UM0132368-01] | 926.3 | 926.3 | 917.9 | 934.3 | Selectivity ELISA (integrin α4β7): 14.9 |
| CC[C@H](C)[C@@H]1NC(=O)[C@H](CC(=O)O)NC(=O)[C@H](CC(C)C)NC(=O)[C@H](Cc2ccc3ccccc3c2)NC(=O)[C@@H]2CCCN2[C@H](C(=O)NC(C)(C)C)[C@H](C)NC1=O [ET01827] | – | – | – | – | % unbound (Cbuffer/Cplasma) Rat plasma 1: 16.2%; % unbound (Cbuffer/Cplasma) Rat plasma 2: 17.4%; % unbound (Cbuffer/Cplasma) Rat plasma Average: 15.7%; % recovery ([1]; rat plasma dialysis): 143%; % unbound (Cbuffer/Cplasma) Mouse plasma 3 [2]: 9.3%; % unbound (Cbuffer/Cplasma) Mouse plasma Average [2]: 9.5%; Control buffer/Buffer at 0.1 uM Cdonor/Creceiver ([3]; buffer/buffer control, 0.1 uM): 86%; % recovery ([3]; mouse plasma dialysis): 103% |
| CC(C)C[C@@H]1NC(=O)c2cccc(c2)CNC(=O)[C@@H]2CCCN2[C@H](C(=O)NC(C)(C)C)[C@H](C)NC(=O)[C@H]([C@@H](C)O)NC(=O)[C@H](CC(=O)O)NC1=O [UM0134690-01] | 942.9 | 957.3 | 950.5 | 920.8 | Selectivity ELISA (integrin α4β7): 8.7 |
| Clc1ccc(COC(Cn2ccnc2)c2ccc(Cl)cc2Cl)c(Cl)c1 (stereo not drawn) [Miconazole, reference compound] | – | – | – | – | IC50 (CYP2C9): 0.32 µM |
| CC(C)C[C@H]1C(=O)N[C@@H](C(C)C)C(=O)N[C@@H](Cc2ccccc2)C(=O)N[C@@H](C)[C@@H](C(=O)NC(C)(C)C)N2CCC[C@H]2C(=O)N[C@@H]([C@@H](C)O)C(=O)N1C [ET00328-01] | – | – | – | – | IC50 (CYP1A2): > 15 µM; IC50 (CYP3A4): 9.7 µM; IC50 (CYP2C9): > 15 µM; IC50 (CYP2D6): > 15 µM |
| CC(C)C[C@@H]1NC(=O)C2(Cc3ccccc3C2)NC(=O)[C@@H]2CCCN2[C@H](C(=O)NC(C)(C)C)[C@H](C)NC(=O)[C@H]([C@@H](C)O)NC(=O)[C@H](CC(=O)O)NC1=O [UM0132369-01] | 882.5 | 874.4 | 885.9 | 887.3 | Selectivity ELISA (integrin α4β7): 14.4 |
| CC(C)C[C@@H]1NC(=O)[C@H](Cc2ccc(O)cc2)NC(=O)[C@@H]2CCCN2[C@H](C(=O)NC(C)(C)C)[C@H](C)NC(=O)[C@H]([C@@H](C)O)NC(=O)[C@H](CC(=O)O)NC1=O [UM0131995-05] | 898.5 | 883.9 | 897.3 | 914.7 | – |
| CSCC[C@@H]1NC(=O)[C@@H]2CCCN2[C@H](C(=O)NC(C)(C)C)[C@H](C)NC(=O)[C@H]([C@@H](C)O)NC(=O)[C@H](CC(=O)O)NC(=O)[C@H](CC(C)C)NC1=O [UM0132374-01] | 183.1 | 179.4 | 184.0 | 185.9 | – |
| CC(C)C[C@@H]1NC(=O)CNC(=O)[C@H](Cc2ccc(O)cc2)NC(=O)[C@@H]2CCCN2[C@H](C(=O)NC(C)(C)C)[C@H](C)NC(=O)[C@H]([C@@H](C)O)NC(=O)[C@H](CC(=O)O)NC1=O [UM0134677-01] | 224.6 | 225.4 | 230.6 | 217.8 | – |
| CC(C)C[C@@H]1NC(=O)[C@H](CCCN)NC(=O)[C@@H]2CCCN2[C@H](C(=O)NC(C)(C)C)[C@H](C)NC(=O)[C@H]([C@@H](C)O)NC(=O)[C@H](CC(=O)O)NC1=O [UM0132377-01] | 218.6 | 225.7 | 218.9 | 211.2 | – |
| CC(C)NCC(O)COc1cccc2ccccc12 (stereo not drawn) [Propranolol, reference compound] | – | – | – | – | recovery at 5 h, 1 microM ([1]; Sprague-Dawley, rat, 50% plasma (K2EDTA)): 79%; fraction unbound at 5 h, 1 microM ([1]; Sprague-Dawley, rat, % unbound (Cbuffer/Cplasma) Rat plasma 1, replicate 1, 1 microM, 5 h): 0.146; fraction unbound at 5 h, 1 microM ([1]; Sprague-Dawley, rat, % unbound (Cbuffer/Cplasma) Rat plasma 2, replicate 2, 1 microM, 5 h): 0.147; fraction unbound at 5 h, 1 microM ([1]; Sprague-Dawley, rat, % unbound (Cbuffer/Cplasma) Rat plasma 3, replicate 3, 1 microM, 5 h): 0.147; fraction unbound at 5 h, 1 microM ([1]; Sprague-Dawley, rat, % unbound (Cbuffer/Cplasma) Rat plasma Average, average of 3 replicates): 0.147; fraction unbound at 5 h, 1 microM ([1]; Sprague-Dawley, rat, free fraction (% unbound), rat plasma): ~0.15; recovery at 5 h, 1 microM ([3]; CD-1, mouse, 50% plasma (K2EDTA)): 93%; fraction unbound at 5 h, 1 microM ([3]; CD-1, mouse, % unbound (Cbuffer/Cplasma) Mouse plasma 1, replicate 1, 1 microM, 5 h): 0.229; fraction unbound at 5 h, 1 microM ([3]; CD-1, mouse, % unbound (Cbuffer/Cplasma) Mouse plasma 2, replicate 2, 1 microM, 5 h): 0.201; fraction unbound at 5 h, 1 microM ([3]; CD-1, mouse, % unbound (Cbuffer/Cplasma) Mouse plasma 3, replicate 3, 1 microM, 5 h): 0.201; fraction unbound at 5 h, 1 microM ([3]; CD-1, mouse, % unbound (Cbuffer/Cplasma) Mouse plasma Average, average of 3 replicates): 0.21; fraction unbound at 5 h, 1 microM ([3]; CD-1, mouse, free fraction (% unbound), mouse plasma): ~0.21 |
| CC(C)C[C@@H]1NC(=O)[C@@H](Cc2ccc(O)cc2)NC(=O)[C@@H]2CCCN2[C@H](C(=O)NC(C)(C)C)[C@H](C)NC(=O)[C@H]([C@@H](C)O)NC(=O)[C@H](CC(=O)O)NC1=O [UM0132375-02] | 954.5 | 966.6 | 960.0 | 936.8 | – |

— patent US11072616B2, “Cyclic peptides targeting alpha-4-beta-7 integrin” (Zealand Pharma A/S, priority 2015, dated 2021)
